Reference: PubChem BioAssay AID1259407 (Chemical Carcinogenesis Research Information System (CCRIS), 2018)
The source made the active and inactive calls. No rule for the calls is given here.

Tested on: CCRIS mutagenicity, Ames/micronucleus/aberration tests
Experiment: CCRIS mutagenicity studies
[1] = Test System: UDS RAT HEPATOCYTES, Strain/Indicator: THY INCORP, Metabolic Activation: NONE, Method: AUTORADIOGRAPHY
[2] = Test System: AMES SALMONELLA TYPHIMURIUM, Strain/Indicator: TA98, Metabolic Activation: NONE, Method: PREINCUBATION
[3] = Test System: AMES SALMONELLA TYPHIMURIUM, Strain/Indicator: TA100, Metabolic Activation: NONE, Method: PREINCUBATION
[4] = Test System: AMES SALMONELLA TYPHIMURIUM, Strain/Indicator: TA1535, Metabolic Activation: NONE, Method: PREINCUBATION
[5] = Test System: AMES SALMONELLA TYPHIMURIUM, Strain/Indicator: TA98, Metabolic Activation: NONE, Method: STANDARD PLATE
[6] = Test System: AMES SALMONELLA TYPHIMURIUM, Strain/Indicator: TA100, Metabolic Activation: NONE, Method: STANDARD PLATE

SMILES: CN(C)c1ccc(N=Nc2ccc3ncsc3c2)cc1
- mutagenic call (Test System: AMES SALMONELLA TYPHIMURIUM, Strain/Indicator: TA98, Metabolic Activation: RAT, LIVER, S-9, AROCLOR 1254, Method: PREINCUBATION): active; positive
- mutagenic call (Test System: AMES SALMONELLA TYPHIMURIUM, Strain/Indicator: TA98, Metabolic Activation: RAT, LIVER, S-9, AROCLOR, Method: PREINCUBATION): active; positive
- mutagenic call (Test System: AMES SALMONELLA TYPHIMURIUM, Strain/Indicator: TA98, Metabolic Activation: RAT, LIVER, S-9, AROCLOR, Method: STANDARD PLATE): active; positive
- mutagenic call (Test System: AMES SALMONELLA TYPHIMURIUM, Strain/Indicator: TA98, Metabolic Activation: RAT, LIVER, S-9, Method: PREINCUBATION): active; positive
- mutagenic call [1]: active; positive
- mutagenic call (Test System: UDS RAT HEPATOCYTES, Strain/Indicator: THY INCORP, Metabolic Activation: NONE, Method: IN VIVO): active; positive
- mutagenic call (Test System: UDS RODENT HEPATOCYTES, Strain/Indicator: THY INCORP (NON-S-PHASE), Metabolic Activation: NONE, Method: AUTORADIOGRAPHY): active; positive

SMILES: N#CCc1ccccc1[N+](=O)[O-]
- mutagenic call (Test System: AMES SALMONELLA TYPHIMURIUM, Strain/Indicator: TA97, Metabolic Activation: HAMSTER, LIVER, S-9, AROCLOR 1254 (10%), Method: PREINCUBATION): inactive; negative
- mutagenic call (Test System: AMES SALMONELLA TYPHIMURIUM, Strain/Indicator: TA97, Metabolic Activation: NONE, Method: PREINCUBATION): active; positive
- mutagenic call (Test System: AMES SALMONELLA TYPHIMURIUM, Strain/Indicator: TA97, Metabolic Activation: RAT, LIVER, S-9, AROCLOR 1254 (10%), Method: PREINCUBATION): inactive; negative
- mutagenic call (Test System: AMES SALMONELLA TYPHIMURIUM, Strain/Indicator: TA98, Metabolic Activation: HAMSTER, LIVER, S-9, AROCLOR 1254 (10%), Method: PREINCUBATION): inactive; negative
- mutagenic call [2]: active; positive
- mutagenic call (Test System: AMES SALMONELLA TYPHIMURIUM, Strain/Indicator: TA98, Metabolic Activation: RAT, LIVER, S-9, AROCLOR 1254 (10%), Method: PREINCUBATION): inactive; negative
- mutagenic call (Test System: AMES SALMONELLA TYPHIMURIUM, Strain/Indicator: TA100, Metabolic Activation: HAMSTER, LIVER, S-9, AROCLOR 1254 (10%), Method: PREINCUBATION): active; positive
- mutagenic call [3]: active; positive
- mutagenic call (Test System: AMES SALMONELLA TYPHIMURIUM, Strain/Indicator: TA100, Metabolic Activation: RAT, LIVER, S-9, AROCLOR 1254 (10%), Method: PREINCUBATION): active; positive
- mutagenic call (Test System: AMES SALMONELLA TYPHIMURIUM, Strain/Indicator: TA1535, Metabolic Activation: HAMSTER, LIVER, S-9, AROCLOR 1254 (10%), Method: PREINCUBATION): active; positive
- mutagenic call [4]: inactive; negative
- mutagenic call (Test System: AMES SALMONELLA TYPHIMURIUM, Strain/Indicator: TA1535, Metabolic Activation: RAT, LIVER, S-9, AROCLOR 1254 (10%), Method: PREINCUBATION): active; positive

SMILES: COP(=S)(OC)Oc1ccc(N=O)c(C)c1
- mutagenic call [5]: active; positive
- mutagenic call (Test System: AMES SALMONELLA TYPHIMURIUM, Strain/Indicator: TA98, Metabolic Activation: RAT, LIVER, S-9, AROCLOR 1254, Method: STANDARD PLATE): active; positive
- mutagenic call [6]: active; positive
- mutagenic call (Test System: AMES SALMONELLA TYPHIMURIUM, Strain/Indicator: TA100, Metabolic Activation: RAT, LIVER, S-9, AROCLOR 1254, Method: STANDARD PLATE): active; positive

SMILES: Cc1cc2ccccc2c2ccc3c(c12)C=CC(=O)C3=O
- mutagenic call (Test System: AMES SALMONELLA TYPHIMURIUM, Strain/Indicator: TA97A, Metabolic Activation: NONE, Method: PREINCUBATION): active; positive
- mutagenic call [2]: inactive; negative
- mutagenic call [3]: active; positive
- mutagenic call (Test System: AMES SALMONELLA TYPHIMURIUM, Strain/Indicator: TA102, Metabolic Activation: NONE, Method: PREINCUBATION): inactive; negative
- mutagenic call (Test System: AMES SALMONELLA TYPHIMURIUM, Strain/Indicator: TA104, Metabolic Activation: NONE, Method: PREINCUBATION): inactive; negative

SMILES: O=C(Nc1ccc(Br)cc1)c1csc([N+](=O)[O-])c1
- mutagenic call [5]: active; positive
- mutagenic call [6]: active; positive

SMILES: c1ccc2c(CC3CO3)cccc2c1 (configuration not stated)
- mutagenic call [3]: active; positive
- mutagenic call [6]: active; positive
- mutagenic call (Test System: AMES SALMONELLA TYPHIMURIUM, Strain/Indicator: TA104, Metabolic Activation: NONE, Method: STANDARD PLATE): active; positive
- mutagenic call [4]: active; positive
- mutagenic call (Test System: AMES SALMONELLA TYPHIMURIUM, Strain/Indicator: TA1535, Metabolic Activation: NONE, Method: STANDARD PLATE): active; positive
- mutagenic call (Test System: AMES SALMONELLA TYPHIMURIUM, Strain/Indicator: TA4001, Metabolic Activation: NONE, Method: STANDARD PLATE): active; positive
- mutagenic call (Test System: AMES SALMONELLA TYPHIMURIUM, Strain/Indicator: TA4006, Metabolic Activation: NONE, Method: STANDARD PLATE): active; positive

SMILES: Clc1nncc2cccnc12
- mutagenic call [2]: inactive; negative
- mutagenic call (Test System: AMES SALMONELLA TYPHIMURIUM, Strain/Indicator: TA98, Metabolic Activation: RAT, LIVER, S-9, PCB, Method: PREINCUBATION): active; positive
- mutagenic call [3]: inactive; negative
- mutagenic call (Test System: AMES SALMONELLA TYPHIMURIUM, Strain/Indicator: TA100, Metabolic Activation: RAT, LIVER, S-9, PCB, Method: PREINCUBATION): active; positive

SMILES: C#CCOS(=O)(=O)c1ccc(C)cc1
- mutagenic call [6]: inactive; negative
- mutagenic call (Test System: AMES SALMONELLA TYPHIMURIUM, Strain/Indicator: TA100, Metabolic Activation: RAT, LIVER, S-9, Method: STANDARD PLATE): active; positive

SMILES: Oc1cc2cc3ccccc3cc2c2ccccc12
- mutagenic call (Test System: CHINESE HAMSTER V-79, Strain/Indicator: V-79/8-AZAGUANINE, Metabolic Activation: NONE, Method: STANDARD PLATE): active; positive

SMILES: Cc1cccc(N)c1N
- mutagenic call (Test System: AMES SALMONELLA TYPHIMURIUM, Strain/Indicator: TA98, Metabolic Activation: RAT, LIVER, MICROSOMES, AROCLOR 1254, Method: PREINCUBATION): active; positive
- mutagenic call (Test System: AMES SALMONELLA TYPHIMURIUM, Strain/Indicator: TA98, Metabolic Activation: RAT, LIVER, MICROSOMES, DIAMINOTOLUENE, Method: PREINCUBATION): active; positive
- mutagenic call (Test System: AMES SALMONELLA TYPHIMURIUM, Strain/Indicator: TA98, Metabolic Activation: RAT, LIVER, MICROSOMES, Method: PREINCUBATION): active; positive

SMILES: C/C=C1\C[C@@H](C)[C@](C)(O)C(=O)OC[C@H]2CCN3CC[C@@H](OC1=O)C23 (some centres not stated)
- mutagenic call [1]: inactive; negative

SMILES: CC(C)(C)c1cc(-c2ccccc2)ccc1[N+](=O)[O-]
- mutagenic call [5]: inactive; negative
- mutagenic call (Test System: AMES SALMONELLA TYPHIMURIUM, Strain/Indicator: TA98, Metabolic Activation: S-9, Method: STANDARD PLATE): inactive; negative
- mutagenic call [6]: inactive; negative
- mutagenic call (Test System: AMES SALMONELLA TYPHIMURIUM, Strain/Indicator: TA100, Metabolic Activation: S-9, Method: STANDARD PLATE): inactive; negative
